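Test compounds were applied to cells in 96-well plates for 48 hours at 5 doses. Definition used: TGI = concentration required for complete inhibition of growth.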
Assays:
Assay in all cases: DTP human tumour cell line panel, 48 h
[1] = tested on: 786-0 renal
[2] = tested on: A549 NSCLC
[3] = tested on: ACHN renal
[4] = tested on: CCRF-CEM leukemia
[5] = tested on: COLO 205 colon
[6] = tested on: DMS 114 small cell lung
[7] = tested on: DMS 273 small cell lung
[8] = tested on: EKVX NSCLC
[9] = tested on: HCC-2998 colon
[10] = tested on: HCT-116 colon
[11] = tested on: HCT-15 colon
[12] = tested on: HL-60(TB) leukemia
[13] = tested on: HOP-62 NSCLC
[14] = tested on: HT29 colon
[15] = tested on: IGROV1 ovarian
[16] = tested on: K-562 leukemia
[17] = tested on: KM12 colon
[18] = tested on: KM20L2 colon
[19] = tested on: LOX IMVI melanoma
[20] = tested on: LXFL 529 NSCLC
[21] = tested on: M14 melanoma
[22] = tested on: M19-MEL melanoma
[23] = tested on: MALME-3M melanoma
[24] = tested on: MOLT-4 leukemia
[25] = tested on: NCI-H226 lung
[26] = tested on: NCI-H23 lung
[27] = tested on: NCI-H460 lung
[28] = tested on: NCI-H522 lung
[29] = tested on: OVCAR-3 ovarian
[30] = tested on: OVCAR-8 ovarian
[31] = tested on: RPMI-8226 leukemia
[32] = tested on: SF-268 CNS
[33] = tested on: SF-295 CNS
[34] = tested on: SF-539 CNS
[35] = tested on: SK-MEL-28 melanoma
[36] = tested on: SK-MEL-5 melanoma
[37] = tested on: SK-OV-3 ovarian
[38] = tested on: SN12C renal
[39] = tested on: SNB-19 CNS
[40] = tested on: SR leukemia
[41] = tested on: SW-620 colon
[42] = tested on: TK-10 renal
[43] = tested on: U251 CNS
[44] = tested on: UACC-257 melanoma
[45] = tested on: UACC-62 melanoma
[46] = tested on: UO-31 renal
[47] = tested on: XF 498 CNS
[48] = tested on: A498 renal
[49] = tested on: CAKI-1 renal
[50] = tested on: DLD-1 colon
[51] = tested on: HOP-18 NSCLC
[52] = tested on: HOP-92 NSCLC
[53] = tested on: OVCAR-4 ovarian
[54] = tested on: OVCAR-5 ovarian
[55] = tested on: RXF 393 renal
[56] = tested on: SK-MEL-2 melanoma
[57] = tested on: SNB-75 CNS
[58] = tested on: SNB-78 CNS

Measured: TGI

CCCCc1c2c(nc3c1CCC/C3=C\c1ccccc1)/C(=C/c1ccccc1)CCC2
not listed: [48] | [49] | [50] | [51] | [52] | [53] | [54] | [55] | [56] | [57] | [58]
> 100 µM: all other assays above

OCC(O)CNc1ccnc2cc(Cl)ccc12 (centres undefined)
not listed: [7]
> 100 µM: all other assays above
